“And” between values parts separate entries of the source, which are not always exact repeats. Equal entries are not always repeated. “Also recorded” adds a separate entry of the source. Marks after values point to notes of the source that are not given here.
Columns and labels:
liver = liver histopathology (haematoxylin and eosin); format: in vivo, mouse; settings: 1000 mg/kg, i.p.; H&E stain
Description: Histopathology (FIG. 5 Sheet No. 3) For liver histopathology, the livers were removed and portions were fixed in 10% buffered formalin (pH 7.4). They were then processed by standard histopathological techniques, stained with Haematoxylin and Eosin (H&E), and examined for morphologic evaluation for liver injury.^21

[1] = system: acetic acid induced writhing; assay: acetic acid induced writhing assay (analgesic activity); format: in vivo, Laca mice; settings: 100 mg/kg p.o., 30 min prior to i.p. acetic acid, mean ± SEM
Description: Animals: Wistar rats (male 150-200 g) of both sex and Laca mice (male, 25-35 g) procured from Central Animal House, Punjab University, Chandigarh, India were used. Animals were housed under standard laboratory conditions and maintained on rat chow, Animals were allowed free access to food and water until used and fasted 24 hr prior to studies. Analgesic activity (Table 2 and FIG. 1 Sheet No. 1 FIG. 3): Analgesic activity was determined by using abdominal writhing assay. Mice were divided into different groups containing 6 animals in each group. Pain can be induced by injection of irritants into the peritoneal cavity of mice. The animals react with a characteristic stretching behaviour which is called writhing. An irritating agent such as phenylquinone or acetic acid can be injected intraperitoneally to mice and the stretching reaction is evaluated. The most commonly used methods for measuring peripheral analgesic activity are the writhing tests in mice. The details of the experiment carried out are mentioned below: Analgesic activity was determined against acetic acid induced writhing assay. Writhing was induced by intraperitoneal (i.p.) injection of freshly prepared acetic acid solution. Mice were per orally (p.o.) administered paracetamol (1) and synthesized NO-releasing derivatives (12 and 13) at a dose of 100 mg/kg, emulsified in 0.5% sodium carboxy methyl cellulose (sodium CMC) vehicle, 30 min prior to i.p. acetic acid (1% w/v in saline pH 2.7, 10 ml/kg, i.p.). Animals were immediately transferred to individual observation chambers and number of writhes (constriction of abdomen, turning of trunk, and extension of hind Limbs) were monitored over the following 20 minutes, beginning 3 min after the injection of acetic acid. At the end of observation period the animals were killed by cervical dislocation and exsaguination. The average number of writhes in each group of drug treated mice was compared with that of the control group and degree of analgesia was expressed as % inhibition calculated from the equation: % Inhibition=(1−Nt/Nc)×100 Where, Nc=number of writhes in control • Nt=number of writhes in drug treated mice

ALP = format: in vivo; settings: 1000 mg/kg; 6 hr after administration, vs basal value; mean ± SEM
Description: (§1) Biochemical Assays (Table 3 and FIG. 2 Sheet No. 1 for SGPT(ALT), and Table 4 and FIG. 3 Sheet No. 2 for ALP): Paracetamol was given at a dose of 1000 mg/Kg and an equivalent dose of 1000 mg/Kg of the derivatives 12 and 13 was given p.o. Before administration blood samples of each animal were taken and after 6 hrs the animals were sacrificed to collect blood samples, and the serum was separated out. Measurement of plasma markers of liver Serum Glutamate oxaloacetate transaminase (SGOT) pyruvate transaminase (SGPT) and Alkaline Phosphatase (ALP) were assayed spectrophotometrically using commercially available kits.
(§2) The animals were divided into different groups containing 6-8 animals in each group. Animals were lightly anaesthetized with diethyl ether and blood samples were collected which served as the basal reading of the enzyme to be analyzed. These groups of rats were then treated with paracetamol (1000 mg/Kg, i.p.), and equivalent dose of the test compounds. Control group was treated with an equal volume of vehicle (0.9% w/v sodium chloride containing 20% v/v tween-80). Animals were lightly anesthetized with ethyl ether and blood samples were collected and allowed to coagulate at room temperature for 1 hr, serum was then separated by centrifugation (5,000 rpm for 10 min) at 4° C. and stored at −40.0° C. till estimation. Plasma markers of liver injury were assayed spectrophotometrically using following commercially available kits according to standard laboratory techniques:
(§3) […]. Enzymes like alkaline phosphatase (ALP, EC 3.1.3.1), serum glutamate pyruvate transaminase (SGPT) or alanine aminotransferase (ALT) ([…]) and the total proteins are considered as plasma markers of liver injury. Nitric oxide releasing paracetamol derivatives 12 and 13 were evaluated for their effect on the markers of liver injury like enzymes ALP and SGPT/ALT. The plasma level of these enzymes is found to increase in the case of liver toxicity.

SGPT/ALT = assay: plasma marker of liver injury SGPT/ALT, spectrophotometric kit; format: in vivo; settings: 1000 mg/kg, 6 hr after administration, vs basal value, mean ± SEM
Description: as §1, §2, §3

cox-2 (ovine) = molecular target: T1, cox-2 (ovine) (Ovis aries, UniProt P79208); assay: In vitro cox-2 (ovine) inhibitory assay; format: biochemical; settings: prostaglandin quantified by EIA, concentration not given
T1 construct: purchased Cayman Chemical Company, USA
T1 sequence (P79208 17-603): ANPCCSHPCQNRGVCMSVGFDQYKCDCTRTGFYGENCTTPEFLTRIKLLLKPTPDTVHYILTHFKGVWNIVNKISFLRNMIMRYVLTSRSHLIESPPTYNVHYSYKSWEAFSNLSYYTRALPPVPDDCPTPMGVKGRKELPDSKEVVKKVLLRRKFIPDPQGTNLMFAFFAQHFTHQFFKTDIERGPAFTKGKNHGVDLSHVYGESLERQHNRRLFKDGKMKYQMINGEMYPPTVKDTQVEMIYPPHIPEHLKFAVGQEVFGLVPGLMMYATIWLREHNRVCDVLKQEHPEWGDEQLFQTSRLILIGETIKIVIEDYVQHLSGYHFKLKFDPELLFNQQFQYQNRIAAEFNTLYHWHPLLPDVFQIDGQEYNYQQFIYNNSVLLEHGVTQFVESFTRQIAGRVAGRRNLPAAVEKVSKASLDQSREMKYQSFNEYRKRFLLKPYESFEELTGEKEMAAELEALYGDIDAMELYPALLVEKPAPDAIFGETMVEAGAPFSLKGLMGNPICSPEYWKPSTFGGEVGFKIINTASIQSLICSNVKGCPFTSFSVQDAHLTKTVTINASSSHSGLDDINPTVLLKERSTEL
Description: In vitro cox-2 (ovine) inhibitory assay: The prostaglandin product is quantified via enzyme immunoassay (EIA) using a broadly specific antibody that binds to all major prostaglandin compounds. Assay kit was purchased from Cayman Chemical Company, USA.

[2] = system: carrageenan induced rat paw edema; assay: carrageenan induced rat paw edema model (anti-inflammatory activity); format: in vivo, Wistar rats; settings: 100 mg/kg p.o.; for % Increase in paw volume Mean ± SEM 2 hr: 2 hr after carrageenan challenge; for anti-inflammatory activity (in words): 2 hr and 4 hr; for % Increase in paw volume Mean ± SEM 4 hr: 4 hr after carrageenan challenge
Description: Animals: Wistar rats (male 150-200 g) of both sex and Laca mice (male, 25-35 g) procured from Central Animal House, Punjab University, Chandigarh, India were used. Animals were housed under standard laboratory conditions and maintained on rat chow, Animals were allowed free access to food and water until used and fasted 24 hr prior to studies.
Experimental conditions: Unless otherwise stated, the following conditions were employed in all experiments. The test compounds were suspended in 0.5% carboxymethylcellulose (CMC) and administered per orally (p.o.). Control animals were given the corresponding amount of vehicle (0.5%, CMC).
Anti-inflammatory activity (Table 1): Anti-inflammatory activity was determined by using carrageenan induced rat paw edema model. Rats were divided into different groups and the drugs were administered to each group.
Paw edema in rats (various modifications and various irritants) is the most widely used method for testing acute and subacute inflammation. It is based upon the ability of anti-inflammatory agents to inhibit the edema produced in the hind paw of the rat after injection of a phlogistic agent. Many phlogistic agents (irritants) have been used, such as brewer's yeast, formaldehyde, dextran, egg albumin, kaolin, sulfated polysaccharides like carrageenin or naphthoylheparamine. The volume of the injected paw is measured before and after application of the irritant and the paw volume of the treated animals is compared to the control. The details of the experiment carried out are described below:
The paracetamol (1) and synthesized NO-releasing derivatives (12 and 13) were administered p.o. at a dose of 100 mg/kg, p.o., emulsified in 0.5% sodium carboxy methyl cellulose (0.5% sodium CMC). Anti-inflammatory activity was determined by using carrageenan induced rat paw edema model. Rats were divided into different groups and the drugs/derivatives were administered to each group. Acute edema was induced in left hind paw of rats by injecting freshly prepared solution of carrageenan (Type IV, 0.1 ml, 1%) under plantar region of left hind paw. In the right paw, saline ([…], 0.9%) was injected, which served as control for comparison. The increase in paw volume was measured by using plethysmometer (water displacement, UGO BASILE, Varese, Italy) at 2 hr and 4 hr after carrageenan challenge. Percentage change (increase) in paw volume was calculated and expressed as the amount of inflammation. % increase in paw volume at any time=(V1−Vr)/Vr×100
Where, V1 Volume of left paw • Vr=Volume of right paw (control)

[3] = in vivo nitric oxide release, serum nitrate/nitrite by Cayman kit; settings: for NO serum level: dose of 100 mg/kg body weight, control 182.1±0.68, in µmol/L; for serum nitrate/nitrite concentration: 6 hours after 100 mg/Kg p.o., control 182.1 ± 0.68
Description: 100 mg/Kg of the derivatives 12 and 13 was given p.o. After 6 hours the animals were sacrificed to collect blood samples and the serum was separated out to find out the levels of NO. Plasma nitrate/nitrite concentration level was measured by commercially available Cayman Kit.

Row | SMILES | liver damage in histopathology (light microscopy) (liver) | % INHIBITION IN WRITHINGS [1] | % INHIBITION IN WRITHINGS ([1]; listed as paracetamol (1)) | % INCREASE IN ALP LEVEL (ALP) | % INCREASE IN SGPT/ALT LEVEL (SGPT/ALT; listed as Paracetamol (1)) | % INCREASE IN SGPT/ALT LEVEL (SGPT/ALT; listed as paracetamol (1)) | cox-2 (ovine) inhibition (cox-2 (ovine)) | % Increase in paw volume Mean ± SEM 2 hr [2] | % Increase in paw volume Mean ± SEM 2 hr ([2]; listed as paracetamol) | % Increase in paw volume Mean ± SEM 2 hr ([2]; listed as paracetamol (1)) | anti-inflammatory activity (in words) [2] | % Increase in paw volume Mean ± SEM 4 hr [2] | % Increase in paw volume Mean ± SEM 4 hr ([2]; listed as paracetamol) | % Increase in paw volume Mean ± SEM 4 hr ([2]; listed as paracetamol (1)) | NO serum level [3] | serum nitrate/nitrite concentration [3] | % INCREASE IN SGPT/ALT LEVEL (SGPT/ALT) | melting point
1 | CC(=O)Nc1ccc(O)cc1 [Compound 1, N-(4-hydroxyphenyl)-acetamide, reference compound] | ballooning degeneration, sinusoidal decongestion, portal triad inflammation and spoty necrosis in Zone I | 45.36 ± 1.34% | 45.36±1.34% | 15.75 ± 1.07 % | 83.11 ± 3.3 % | more than 80% | 24.0% | 38.37 ± 1.26% | 38.37±1.26% | 38.37±1.26% | No significant activity | 58.92 ± 1.56% | 58.92±1.56% | 58.92±1.56% |  |  |  | 
2 | CC(=O)Nc1ccc(OCCO[N+](=O)[O-])cc1 [Compound 12, N-[4-(2-Nitrooxy-ethoxy)-phenyl]-acetamide] | Mild ballooning degeneration | 58.35±1.50% |  | 4.17 ± 0.62 % |  |  | 21.0% | 32.68±1.45% |  |  | good anti-inflammatory activity | 26.44±0.10% and 26.44 ± .10% |  |  | 354.2±2.17 | 354.2 ± 2.17 µmol/L | 27.94 ± 2.7*^,# % | 
3 | CC(=O)Nc1ccc(OCCCCCO[N+](=O)[O-])cc1 [Compound 13, N-[4-(5-Nitrooxy-pentoxy)-phenyl]-acetamide] | didn't cause any significant damage to the liver; also recorded: no significant damage | 61.80±1.69% |  | 2.85 ± 0.83 % |  |  | 32.5% | 31.15±1.31% |  |  |  | 28.45±1.28% |  |  | 265.4±2.47 | 265.4 ± 2.47 µmol/L | 11.72 ± 1.4*^,# % | 
4 | CC(=O)Nc1ccc(OCCCCO[N+](=O)[O-])cc1 [Compound 19, N-[4-(4-Nitrooxy-butoxy)-phenyl]-acetamide] |  |  |  |  |  |  |  |  |  |  |  |  |  |  |  |  |  | 92 to 98 °C

Source: patent publication US8207222B2, “Nitric oxide releasing derivatives of paracetamol” (Council of Scientific and Industrial Research, priority 2007, dated 2012)
